Literature values, collected in patent US20150252306A1, “COMPOSITIONS COMPRISING A PUNGENT AGENT” (The Procter & Gamble Company, priority 2014, published 2015).

Settings: Scoville heat units, given for comparison

## COc1cc(CNC(=O)CCCC/C=C/C(C)C)ccc1O [capsaicin]
  pungency level: about 16 000 000 SHU
